In one experiment the target is T1, Human squalene epoxidase (Homo sapiens, UniProt Q14534).
T1 construct: The resultant supernatant is used as the squalene epoxidase fraction in the later-described test; endogenous in cells; host or cells: Hep-G2 human hepatoma cells (microsomes solubilized with Triton X-100)
Put plainly: Human squalene epoxidase inhibition action. The class given is biochemical. Particulars: solubilized Hep-G2 microsome fraction, 8 μM 3H-squalene, 37° C., 60 minutes, read-out: Inhibition rate at 3 μM concentration. How it is done:
Squalene epoxidase inhibition action
(1) Preparation of squalene epoxidase
Human squalene epoxidase is prepared in accordance with the process disclosed in J. Biol. Chem., 245, 1670 (1970); ibid., 250, 1572 (1975).
Namely, human hepatoma (Hep-G2) cells are cultured at 37° C. under air containing 5% carbon dioxide. After completion of the culture, the cells are scraped and collected by centrifugation. The cells are suspended in 0.1M Tris-HCl buffer (pH 7.5) (1×10^8 cells/ml), the suspension is homogenized and centrifuged at 9750 Xg for 10 minutes, and then the sediment is washed with 0.1M Tris-HCl buffer (pH 7.5) and centrifuged at 105,000 Xg for 1 hour. The resultant microsome is suspended in 0.1M Tris-HCl buffer (pH 7.5) so that the protein amount becomes 20 mg/ml, and solubilized by stirring the suspension under ice cooling in the presence of 1% Triton X-100. After this solubilization treatment, the concentration of Triton X-100 is diluted to 0.125% with 1 mM EDTA and 1 mM dithiothreitol, and the dilution is centrifuged at 105,000 Xg for 1 hour. The resultant supernatant is used as the squalene epoxidase fraction in the later-described test.
(2) Assay of squalene epoxidase activity
Assay of human squalene epoxidase activity is carried out according to the method disclosed in J. Biol. Chem., 245, 1670 (1970).
Namely, 3 μl of a dimethyl sulfoxide solution of a test chemical is added to a solution consisting of 0.2 ml of the squalene epoxidase fraction [protein amount 0.4 mg, 0.1% Triton X-100, […] Tris-HCl buffer (pH 7.5)] prepared in (1), 100 μM FAD, 1 mM NADPH, 1 mM EDTA and 8 μM ^3 H-squalene-Tween 80 suspension to make the total volume 0.3 ml, and the mixture is subjected to reaction with shaking at 37° C. for 60 minutes. 0.3 ml of 10% potassium hydroxide-methanol solution is added to discontinue the reaction, and the mixture is heated at 75° C. for 1 hour. Then the non-saponified substance is extracted with petroleum ether and the extract is concentrated to dryness under a nitrogen stream. The resultant residue is dissolved in a small amount of ethyl ether, pre-coated Silicagel TCL is spotted with the extract, and development is carried out with benzeneethyl acetate (99.5:0.5). The position of the ^3 H-squalene-2,3 -epoxide in the TLC is confirmed using ergosterol acetate as a marker, and the ^3 H-squalene-2,3-epoxide portion in the TLC is cut out. The TLC piece is immersed in a toluene series scintillator and measurement is made using a liquid scintillation counter. Thereby, the inhibition rates (%) against squalene epoxidase at 3 μM concentration of compounds of this invention are determined, and the results are shown in the following Table 1.

The subject of a further experiment is cholesterol biosynthesis. In words: Inhibition test of in vivo cholesterol biosynthesis in rat. The arrangement: species or system rat (female SD). Particulars: 3 mg/kg oral, n = 5, rat; for 14C-cholesterol, dpm: dpm of produced 14C-cholesterol in 1 ml of plasma, control values 2282-3218 dpm; for Cholesterol biosynthesis inhibition rate: versus control group. How it is done: Inhibition test of in vivo cholesterol biosynthesis
In this in vivo test, female SD rats (5 weeks old) are used. The rats are raised for 9 days under an environment where illumination is applied with reversed day and night (dark from 6 a.m. to 6 p.m.), and meanwhile they can freely ingest a solid feed and water. A test chemical is orally administered two hours before dark 6 o'clock when cholesterol biosynthesis becomes maximum. The compound is dissolved in a middle-chain fatty acid triglyceride, and orally administered at 3 mg/kg in an amount of 0.5 ml/100 g body weight. Further, the same volume of the solvent (vehicle) used is administered to control animals. […] after the administration of the test chemical, 20μ Ci/100 g body weight of ^14 C-sodium acetate (56 m Ci/m mole) is intraperitoneally administered to the rats, respectively. At dark 6 o'clock blood is sampled from the abdominal artery of each animal under ether anesthesia and centrifuged to separate the plasma.
2 ml of 15% potassium hydroxide-methanol solution is added per ml of the plasma, and the mixture is heated at 75° C. for 3 hours to carry out saponification. Each sample is extracted twice, each time with 2 ml of petroleum ether, and the extract is washed with 2 ml of distilled water. Finally each extract is evaporated to dryness under a nitrogen stream.
The resultant residue is dissolved in a small amount of ethyl ether, and a pre-coated silica gel TLC is spotted with the total amount of the solution. This plate is developed with a solvent system of hexane/ethyl ether/acetic acid (85:15:4). Coloring is carried out with iodine, and radioactivity at the cholesterol part is assayed using a liquid scintillation counter.
The results (Table 2) are expressed by dpm values of produced ^14 C-cholesterol existing in 1 ml of each plasma. Further, the inhibition of cholesterol biosynthesis is calculated by comparing the amounts of ^14 C-cholesterol biosynthesis between the test groups and the control group.

T1 sequence (Q14534 whole entry): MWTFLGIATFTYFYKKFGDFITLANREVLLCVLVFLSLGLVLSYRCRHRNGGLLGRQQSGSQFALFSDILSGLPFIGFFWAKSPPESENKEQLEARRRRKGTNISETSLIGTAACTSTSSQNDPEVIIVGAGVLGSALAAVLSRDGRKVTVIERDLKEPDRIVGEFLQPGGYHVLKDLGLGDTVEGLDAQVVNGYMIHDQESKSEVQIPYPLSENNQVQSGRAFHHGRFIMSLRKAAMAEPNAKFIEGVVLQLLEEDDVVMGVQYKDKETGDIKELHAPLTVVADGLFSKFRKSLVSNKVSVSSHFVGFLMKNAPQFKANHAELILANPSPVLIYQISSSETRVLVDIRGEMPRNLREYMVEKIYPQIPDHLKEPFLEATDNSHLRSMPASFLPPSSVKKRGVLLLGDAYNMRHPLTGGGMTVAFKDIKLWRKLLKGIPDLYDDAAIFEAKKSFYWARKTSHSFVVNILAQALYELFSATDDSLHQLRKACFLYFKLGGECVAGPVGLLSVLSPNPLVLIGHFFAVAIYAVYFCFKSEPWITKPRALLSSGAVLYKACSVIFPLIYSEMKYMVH

As to `C/C(=C/c1cccc(OCc2cc(-c3ccsc3)cs2)c1)C/C=C/C#CC(C)(C)C` [Example 22, 2-[3-[(1Z,4E)-2,8,8-trimethylnona-1,4-dien-6-ynyl]phenoxymethyl]-4-(3-thienyl)thiophene], the inhibition at 3 µM at Human squalene epoxidase amounted to 100%.

Turning to `COC/C(=C/c1cccc(CCc2cccc(-c3ccsc3)c2)c1)C/C=C/C#CC(C)(C)C` [Example 38, (E,E)-3-[3-[2-[3-(2-methoxymethyl-8,8-dimethylnona-1,4-dien-6-ynyl)phenyl]ethyl]phenyl]thiophene], the inhibition at 3 µM at Human squalene epoxidase stood at 100%. In the experiment on cholesterol biosynthesis, the “14C-cholesterol, dpm” value is 350 dpm and the “Cholesterol biosynthesis inhibition rate” value was found to be 85%.

In the case of `CC(C)(C)C#C/C=C/C/C(=C\c1cccc(OCc2cc(-c3ccsc3)cs2)c1)CO` [Example 5, (E,E)-2-(6,6-dimethyl-2-hepten-4-ynyl)-3-[3-[4-(3-thienyl)-2-thienylmethoxy]phenyl]-2-propen-1-ol], on Human squalene epoxidase, the inhibition at 3 µM came to 100%.

Take `C/C(=C/CCC/C=C/c1cccc(-c2ccsc2)c1)C/C=C/C#CC(C)(C)C` [Example 18, 3-[3-[(1E,6Z,9E)-7,13,13-trimethyltetradeca-1,6,9-trien-11-ynyl]phenyl]thiophene]: the inhibition at 3 µM on Human squalene epoxidase came to 99%.

For `COC/C(=C/CCCCOc1cccc(-c2ccsc2)c1)C/C=C/C#CC(C)(C)C` [Example 30, (E,E)-3-[3-(6-methoxymethyl-12,12-dimethyltrideca-5,8-dien-10-ynyloxy)phenyl]thiophene], at Human squalene epoxidase, the inhibition at 3 µM is 100%.

Turning to `CC(C)(C)C#C/C=C/CC(CO)Cc1cccc(OCc2cccc(-c3ccsc3)c2)c1` (centres unmarked) [Example 11, (E)-2-(6,6-dimethyl-2-hepten-4-ynyl)-3-[3-[3-(3-thienyl)phenylmethoxy]phenyl]propanol], the inhibition at 3 µM on Human squalene epoxidase is 88%.

`C=CC(C/C=C/C#CC(C)(C)C)Cc1cccc(/C=C/c2cccc(-c3ccsc3)c2)c1` (centres unmarked) [Example 44]: the inhibition at 3 µM at Human squalene epoxidase came out at 100%.

On to `COC/C(=C/c1cccc(OCc2cc(-c3ccsc3)cs2)c1)C/C=C/C#CC(C)(C)C` [Example 33, (E,E)-2-[3-(2-methoxymethyl-8,8-dimethylnona-1,4-dien-6-ynyl)phenoxymethyl]-4-(3-thienyl)thiophene], for which the inhibition at 3 µM on Human squalene epoxidase worked out at 100%.

Regarding `CSC/C(=C/CCCCOc1cccc(-c2ccsc2)c1)C/C=C/C#CC(C)(C)C` [Example 42, (E,E)-3-[3-(12,12-dimethyl-6-methylthiomethyltrideca-5,8-dien-10-ynyloxy)phenyl]thiophene], on Human squalene epoxidase, the inhibition at 3 µM stood at 100%.

As for `CC(C)(C)C#C/C=C/C/C(=C\c1cccc(/C=C/c2cccc(-c3ccsc3)c2)c1)CO` [Example 6, (E,E,E)-2-(6,6-dimethyl-2-hepten-4-ynyl)-3-[3-[2-[3-(3-thienyl)phenyl]ethenyl]phenyl]-2-propen-1-ol], the inhibition at 3 µM on Human squalene epoxidase worked out at 100%. Moreover, in the experiment with cholesterol biosynthesis, the “14C-cholesterol, dpm” value was found to be 871 dpm and the “Cholesterol biosynthesis inhibition rate” value is 73%.

On to `C/C(=C/c1cccc(/C=C/c2cccc(-c3ccsc3)c2)c1)C/C=C/C#CC(C)(C)C` [Example 23, 3-[3-[2-[3-[(1Z,4E)-2,8,8-trimethylnona-1,4-dien-6-ynyl]phenyl]ethenyl]phenyl]thiophene], for which the inhibition at 3 µM on Human squalene epoxidase stood at 100%.

In the case of `CC(O)C(C/C=C/C#CC(C)(C)C)Cc1cccc(/C=C/c2cccc(-c3ccsc3)c2)c1` (centres unmarked) [Example 43, (E,E)-3-(6,6-dimethyl-2-hepten-4-ynyl)-4-[3-[2-[3-(3-thienyl)phenyl]ethenyl]phenyl]-2-butanol], the inhibition at 3 µM on Human squalene epoxidase was 100%.

With `COC/C(=C/CCC/C=C/c1cccc(-c2ccsc2)c1)C/C=C/C#CC(C)(C)C` [Example 29, (E,E,E)-3-[3-(7-methoxymethyl-13,13-dimethyltetradeca-1,6,9-trien-11-ynyl)phenyl]thiophene], the inhibition at 3 µM on Human squalene epoxidase amounted to 100%.

With `CC(C)(C)C#C/C=C/C/C(=C\CCC/C=C/c1cccc(-c2ccsc2)c1)CO` [Example 1], at Human squalene epoxidase, the inhibition at 3 µM turned out to be 100%. Moreover, in the experiment with cholesterol biosynthesis, the “14C-cholesterol, dpm” value was found to be 275 dpm and the “Cholesterol biosynthesis inhibition rate” value came to 91%.

On to `COCC(C/C=C/C#CC(C)(C)C)Cc1cccc(OCc2cccc(-c3ccsc3)c2)c1` (centres unmarked) [Example 32, (E)-3-[3-[3-(2-methoxymethyl-8,8-dimethyl-4-nonen-6-ynyl)phenoxymethyl]phenyl]thiophene], for which the inhibition at 3 µM on Human squalene epoxidase was determined as 100%.

Take `CC(C)(C)C#C/C=C/C/C(=C\c1cccc(COc2cccc(-c3ccsc3)c2)c1)CO` [Example 4, (E,E)-2-(6,6-dimethyl-2-hepten-4-ynyl)-3-[3-[3-(3-thienyl)phenoxymethyl]phenyl]-2-propen-1-ol]: the inhibition at 3 µM at Human squalene epoxidase is 100%.

Regarding `COC(C)(C)C#C/C=C/C/C(=C\c1cccc(/C=C/c2cccc(-c3ccsc3)c2)c1)CO` [Example 8, (E,E,E)-2-(6-methoxy-6-methyl-2-hepten-4-ynyl)-3-[3-[2-[3-(3-thienyl)phenyl]ethenyl]phenyl]-2-propen-1-ol], the inhibition at 3 µM at Human squalene epoxidase came to 100%.

Turning to `CC(C)(C)C#C/C=C/C/C(=C\CCCCOc1cccc(-c2ccsc2)c1)CO` [Example 2, (E,E)-2-(6,6-dimethyl-2-hepten-4-ynyl)-7-[3-(3-thienyl)phenoxy]-2-hepten-1-ol], the inhibition at 3 µM on Human squalene epoxidase worked out at 100%.

As for `COC(C)(C)C#CC#CC/C(=C\c1cccc(/C=C/c2cccc(-c3ccsc3)c2)c1)CO` [Example 10, (E,E)-2-(6-methoxy-6-methyl-2,4-heptadiynyl)-3-[3-[2-[3-(3-thienyl)phenyl]ethenyl]phenyl]-2-propen-1-ol], on Human squalene epoxidase, the inhibition at 3 µM turned out to be 100%.

In the case of `CC(C)(C)C#C/C=C/CC(CO)Cc1cccc(/C=C/c2cccc(-c3ccsc3)c2)c1` (centres unmarked) [Example 12, (E,E)-2-(6,6-dimethyl-2-hepten-4-ynyl)-3-[3-[2-[3-(3-thienyl)phenyl]ethenyl]phenyl]propanol], the inhibition at 3 µM on Human squalene epoxidase was found to be 100%. In addition, in the experiment with cholesterol biosynthesis, the “14C-cholesterol, dpm” value is 1208 dpm and the “Cholesterol biosynthesis inhibition rate” value was 61%.

On to `C/C(=C/c1cccc(COc2cccc(-c3ccsc3)c2)c1)C/C=C/C#CC(C)(C)C` [Example 21, 3-[3-[3-[(1Z,4E)-2,8,8-trimethylnona-1,4-dien-6-ynyl]phenylmethoxy]phenyl]thiophene], for which the inhibition at 3 µM at Human squalene epoxidase stood at 100%.

The record behind these values is patent publication US5444084A, “Substituted heterocyclic derivative having squalene epoxidase inhibition action and its use” (Banyu Pharmaceutical Co., Ltd., priority 1992, dated 1995).
